The values below come from ChEMBL document CHEMBL3611972, “Leishmanicidal, antiproteolytic, and mutagenic evaluation of alkyltriazoles and alkylphosphocholines” (Eur J Med Chem, 2015).

Data set [1] deals with Leishmania amazonensis. Put plainly: Leishmanicidal activity against Leishmania amazonensis MHOM/BR/71973/M2269 amastigotes infected in mouse peritoneal macrophages assessed as reduction in surviving parasites incubated for 72 hrs by Giemsa staining based optical light microscopy. The format is functional, organism-based. The following applies: MHOM/BR/71973/M2269, 72 h.
Data set [2] deals with Salmonella typhimurium. Put plainly: Mutagenicity in Salmonella typhimurium TA97a assessed as mutagenicity index at 150.98 uM/plate incubated for 90 mins at 37 degC in presence of liver S9 fractions by Ames test relative to untreated control. The settings on record: salmonella enterica subsp. enterica serovar typhimurium, s9, 1.5 h. The data set is classed as toxicity, organism-based.

Data set [3] deals with Salmonella typhimurium. Put plainly: Mutagenicity in Salmonella typhimurium TA98 assessed as mutagenicity index at 435.85 uM/plate incubated for 90 mins at 37 degC in presence of liver S9 fractions by Ames test relative to untreated control. The format is toxicity, organism-based. The settings on record: salmonella enterica subsp. enterica serovar typhimurium, s9, 1.5 h.
The nature of data set [4]: Selectivity index, ratio of CC50 for mouse peritoneal macrophages to IC50 for Leishmania amazonensis MHOM/BR/71973/M2269 amastigotes infected in mouse peritoneal macrophages. The data set is classed as functional.
Data set [5] concerns Salmonella typhimurium. In words: Mutagenicity in Salmonella typhimurium TA102 assessed as mutagenicity index at 570.37 uM/plate incubated for 90 mins at 37 degC in absence of liver S9 fractions by Ames test relative to untreated control. The data set is classed as toxicity, organism-based. The following applies: salmonella enterica subsp. enterica serovar typhimurium, 1.5 h.

In data set [6] the test system is Salmonella typhimurium. In words: Mutagenicity in Salmonella typhimurium TA97a assessed as mutagenicity index at 700.00 uM/plate incubated for 90 mins at 37 degC in absence of liver S9 fractions by Ames test relative to untreated control. The data set is classed as toxicity, organism-based. The settings on record: salmonella enterica subsp. enterica serovar typhimurium, 1.5 h.

For data set [7], the system named is Salmonella typhimurium. In words: Mutagenicity in Salmonella typhimurium TA100 assessed as mutagenicity index at 435.85 uM/plate incubated for 90 mins at 37 degC in absence of liver S9 fractions by Ames test relative to untreated control. The format is toxicity, organism-based. The settings on record: salmonella enterica subsp. enterica serovar typhimurium, 1.5 h.

Data set [8] is described as follows: Inhibition of Leishmania mexicana cysteine protease r-CPB2.8 using Z-FR-AMC fluorogenic substrate by spectrofluorometry.
Data set [9] concerns Salmonella typhimurium. Put plainly: Mutagenicity in Salmonella typhimurium TA102 assessed as mutagenicity index at 700.00 uM/plate incubated for 90 mins at 37 degC in absence of liver S9 fractions by Ames test relative to untreated control. The settings on record: salmonella enterica subsp. enterica serovar typhimurium, 1.5 h. The format is toxicity, organism-based.
In data set [10] the test system is Salmonella typhimurium. In words: Mutagenicity in Salmonella typhimurium TA102 assessed as mutagenicity index at 435.85 uM/plate incubated for 90 mins at 37 degC in presence of liver S9 fractions by Ames test relative to untreated control. The format is toxicity, organism-based. The following applies: salmonella enterica subsp. enterica serovar typhimurium, s9, 1.5 h.

In data set [11] the test system is Salmonella typhimurium. In words: Mutagenicity in Salmonella typhimurium TA97a assessed as mutagenicity index at 570.37 uM/plate incubated for 90 mins at 37 degC in presence of liver S9 fractions by Ames test relative to untreated control. The format is toxicity, organism-based. The following applies: salmonella enterica subsp. enterica serovar typhimurium, s9, 1.5 h.

The test system of data set [12] is Salmonella typhimurium. Put plainly: Mutagenicity in Salmonella typhimurium TA102 assessed as mutagenicity index at 296.15 uM/plate incubated for 90 mins at 37 degC in presence of liver S9 fractions by Ames test relative to untreated control. The data set is classed as toxicity, organism-based. The settings on record: salmonella enterica subsp. enterica serovar typhimurium, s9, 1.5 h.

The test system of data set [13] is Salmonella typhimurium. In words: Mutagenicity in Salmonella typhimurium TA97a assessed as mutagenicity index at 700.00 uM/plate incubated for 90 mins at 37 degC in presence of liver S9 fractions by Ames test relative to untreated control. The data set is classed as toxicity, organism-based. The following applies: salmonella enterica subsp. enterica serovar typhimurium, s9, 1.5 h.

Data set [14] deals with Leishmania amazonensis. Put plainly: microbe, parasite or virus in culture. The data set is classed as functional, organism-based. The following applies: MHOM/BR/71973/M2269, 72 h.
Description: Leishmanicidal activity against Leishmania amazonensis MHOM/BR/71973/M2269 promastigotes assessed as reduction in surviving parasites incubated for 72 hrs by Neubauer's chamber based cell counting method
A short description of data set [15]: Cytotoxicity against mouse peritoneal macrophages assessed as reduction in cell viability incubated for 72 hrs by MTT assay. The format is cell-based, Peritoneal macrophage cell.
Data set [16] deals with Salmonella typhimurium. In words: Mutagenicity in Salmonella typhimurium TA100 assessed as mutagenicity index at 296.15 uM/plate incubated for 90 mins at 37 degC in presence of liver S9 fractions by Ames test relative to untreated control. The format is toxicity, organism-based. The settings on record: salmonella enterica subsp. enterica serovar typhimurium, s9, 1.5 h.
Data set [17] has as its system Salmonella typhimurium. Put plainly: Mutagenicity in Salmonella typhimurium TA102 assessed as mutagenicity index at 150.98 uM/plate incubated for 90 mins at 37 degC in presence of liver S9 fractions by Ames test relative to untreated control. The following applies: salmonella enterica subsp. enterica serovar typhimurium, s9, 1.5 h. The format is toxicity, organism-based.

Data set [18] relates to Salmonella typhimurium. In words: Mutagenicity in Salmonella typhimurium TA100 assessed as mutagenicity index at 313.73 uM/plate incubated for 90 mins at 37 degC in presence of liver S9 fractions by Ames test relative to control. The format is toxicity, organism-based. The following applies: salmonella enterica subsp. enterica serovar typhimurium, s9, 1.5 h.
Data set [19] deals with Salmonella typhimurium. In words: Mutagenicity in Salmonella typhimurium TA97a assessed as mutagenicity index at 1454.55 uM/plate incubated for 90 mins at 37 degC in presence of liver S9 fractions by Ames test relative to control. The format is toxicity, organism-based. The settings on record: salmonella enterica subsp. enterica serovar typhimurium, s9, 1.5 h.
Data set [20] is described as follows: Mutagenicity in CHOK1 cells assessed as induction of chromosomal DNA mutation by measuring nuclear division index level at 14.51 to 58.04 incubated for 3 hrs by fluorescence microscopy. The data set is classed as toxicity, cell-based, Cricetulus griseus. The following applies: chinese hamster, cho-k1, 3 h.
In data set [21] the test system is Salmonella typhimurium. In words: Mutagenicity in Salmonella typhimurium TA100 assessed as mutagenicity index at 313.73 uM/plate incubated for 90 mins at 37 degC in absence of liver S9 fractions by Ames test relative to control. The data set is classed as toxicity, organism-based. The settings on record: salmonella enterica subsp. enterica serovar typhimurium, 1.5 h.

Data set [22] has as its system Salmonella typhimurium. Put plainly: Mutagenicity in Salmonella typhimurium TA102 assessed as mutagenicity index at 313.73 uM/plate incubated for 90 mins at 37 degC in absence of liver S9 fractions by Ames test relative to control. The format is toxicity, organism-based. The following applies: salmonella enterica subsp. enterica serovar typhimurium, 1.5 h.
Data set [23] relates to Salmonella typhimurium. In words: Mutagenicity in Salmonella typhimurium TA98 assessed as mutagenicity index at 313.73 uM/plate incubated for 90 mins at 37 degC in presence of liver S9 fractions by Ames test relative to control. The format is toxicity, organism-based. The settings on record: salmonella enterica subsp. enterica serovar typhimurium, s9, 1.5 h.
Data set [24] concerns Salmonella typhimurium. Put plainly: Mutagenicity in Salmonella typhimurium TA102 assessed as mutagenicity index at 616.38 uM/plate incubated for 90 mins at 37 degC in presence of liver S9 fractions by Ames test relative to control. The data set is classed as toxicity, organism-based. The following applies: salmonella enterica subsp. enterica serovar typhimurium, s9, 1.5 h.

Data set [25] relates to Salmonella typhimurium. Put plainly: Mutagenicity in Salmonella typhimurium TA97a assessed as mutagenicity index at 1454.55 uM/plate incubated for 90 mins at 37 degC in absence of liver S9 fractions by Ames test relative to control. The settings on record: salmonella enterica subsp. enterica serovar typhimurium, 1.5 h. The data set is classed as toxicity, organism-based.

Data set [26] can be described thus: Mutagenicity in CHOK1 cells assessed as induction of chromosomal DNA mutation by measuring micronuclei level at 14.51 to 58.04 incubated for 3 hrs by cytokinesis-block micronucleus assay. The settings on record: chinese hamster, cho-k1, 3 h. The data set is classed as toxicity, cell-based, Cricetulus griseus.
Data set [27] concerns Salmonella typhimurium. In words: Mutagenicity in Salmonella typhimurium TA102 assessed as mutagenicity index at 1454.55 uM/plate incubated for 90 mins at 37 degC in absence of liver S9 fractions by Ames test relative to control. The data set is classed as toxicity, organism-based. The following applies: salmonella enterica subsp. enterica serovar typhimurium, 1.5 h.
Data set [28] relates to Salmonella typhimurium. In words: Mutagenicity in Salmonella typhimurium TA97a assessed as mutagenicity index at 905.66 uM/plate incubated for 90 mins at 37 degC in absence of liver S9 fractions by Ames test relative to control. The format is toxicity, organism-based. The settings on record: salmonella enterica subsp. enterica serovar typhimurium, 1.5 h.
The subject of data set [29] is Salmonella typhimurium. In words: Mutagenicity in Salmonella typhimurium TA97a assessed as mutagenicity index at 616.38 uM/plate incubated for 90 mins at 37 degC in absence of liver S9 fractions by Ames test relative to control. The data set is classed as toxicity, organism-based. The following applies: salmonella enterica subsp. enterica serovar typhimurium, 1.5 h.

In data set [30] the test system is Salmonella typhimurium. In words: Mutagenicity in Salmonella typhimurium TA100 assessed as mutagenicity index at 1454.55 uM/plate incubated for 90 mins at 37 degC in absence of liver S9 fractions by Ames test relative to control. The format is toxicity, organism-based. The following applies: salmonella enterica subsp. enterica serovar typhimurium, 1.5 h.
For data set [31], the system named is Salmonella typhimurium. Put plainly: Mutagenicity in Salmonella typhimurium TA98 assessed as mutagenicity index at 1454.55 uM/plate incubated for 90 mins at 37 degC in presence of liver S9 fractions by Ames test relative to control. The format is toxicity, organism-based. The following applies: salmonella enterica subsp. enterica serovar typhimurium, s9, 1.5 h.

Data set [32] relates to Salmonella typhimurium. In words: Mutagenicity in Salmonella typhimurium TA100 assessed as mutagenicity index at 616.38 uM/plate incubated for 90 mins at 37 degC in presence of liver S9 fractions by Ames test relative to control. The data set is classed as toxicity, organism-based. The settings on record: salmonella enterica subsp. enterica serovar typhimurium, s9, 1.5 h.

The structures appear in SMILES notation.

`CS(=O)(=O)OCCCCCCCCCCCCn1cc(CCCO)nn1`: the IC50 in data set [1] worked out at 14.2 µM; in [8], 8.18 µM; in [14], 28.5 µM. The Activity_index in data set [2] is listed as 0.9; in data set [3] it was 1.1; in data set [5], 1; in data set [6] it was 1.1; in data set [7], 1.2; in [9] it was 1. Also, the Activity_index in data set [10] is 1.1; in [11] it was 1; in data set [12] it was 1.3; in data set [13] it was 0.8; in [16], 0.9; in data set [17] it was 1.1. Moreover, the “Ratio CC50/IC50” value in data set [4] worked out at 11.47. Moreover, the 50% cytotoxic concentration (CC50) at 72 h in data set [15] came to 163 µM.
Take `CCOC(=O)c1cn(CCCCCCCCCOS(C)(=O)=O)nn1`: the Activity_index in [18] was 0.9; in data set [19] it was 0.8; in data set [21], 1.2; in data set [22] it was 1.2; in data set [23], 1; in [24] it was 1.7. Also, the Activity_index in data set [25] amounted to 1.4; in data set [27], 1.1; in data set [28], 1.8; in data set [29], 1.6; in [30], 1.2; in [31], 0.8. Also, the Activity_index in [32] was 1. The IC50 in data set [1] came to 76.7 µM; in data set [8], 0.857 µM; in data set [14] it was 37.2 µM. Also, the “Ratio CC50/IC50” value in [4] was found to be 12.82. For the same molecule, the Activity result in data set [20] and in data set [26] was “Non-toxic” in each case. In [15], the CC50 at 72 h is 983 µM.
